The subject of this series is Caco-2 cell homogenates. Nature of the series: Conversion of prodrug to parent compound (astaxanthin) in frozen/thawed unviable Caco-2 cell homogenates. Type of series: in vitro ADME. From the text: Formation of astaxanthin in resuspended Caco-2 cells previously frozen.
Human carboxylesterase 1 (hCE-1) and carboxylesterase 2 (hCE-2) are serine esterases involved in both drug metabolism and activation of prodrugs. The expression pattern of human carboxylesterase in Caco-2 (human colon adenocarcinoma) cell line is similar to human […] that expresses a much higher level of hCE-1 and lower level of hCE-2 (Drug Metab. Pharmacokinet. 21 (3): 173-185 (2006)).
Therefore, the formation of astaxanthin from compounds CCXX, CCXXI, CCXXII and CCXXVI was tested with Caco-2 cells that were frozen at −80° C. and thawed before testing. The freezing/thawing process without cryopreservants compromised the integrity of the membrane, as confirmed by positive staining of the dead cells with a dye exclusion method using trypan blue. Dead cells are not selective to compounds passing through the compromised membrane, eliminating the transport and permeation barriers to access the cell content and metabolic enzymes including the carboxylesterases.
The Caco-2 (colorectal adenocarcinoma) cellular line was obtained from Cordoba Cell Bank (CCB, CIQUIBIC, Cordoba, Argentina), #ATCC Passage: 18. #CCB Passage: 4. Culture conditions: Low Glucose DMEM (1 g/L)+Penicillin-Streptomycin+20% Fetal Bovine Serum (SFB). Cells were cultured in a 37° C. incubator with 5% CO2 on cell culture dishes. Once they reached confluence, cells were washed twice with Phosphate-buffered saline (PBS) and lifted after trypsinization. For trypsinization, 1 mL of trypsin was added, incubated for a few minutes in the 37° C. incubator, neutralized with supplemented culture medium and cells were collected in 15 mL tubes (Falcon). The tubes were centrifuged for 5 min at 1000 rpm, the supernatant was removed, and the cells were resuspended in supplemented medium. To determine the amount of viable (living) cells, a ½ dilution with trypan blue dye was made and counted in an automatic cell counter (more than 90% of live cells were measured). Finally, the tubes were centrifuged again, and cells were resuspended at a concentration of 5 million/mL in non-supplemented DMEM and placed in a −80° C. freezer. To determine the amount of non-viable cells after freezing and thawing, a ½ dilution with trypan blue dye was made and they were counted in an automatic cell counter and the dead cells were above 95%. Pools of unviable (“leaking”) cell homogenates were subsequently used for incubations with the compounds of interest.
A 1 mL frozen aliquot containing 5 million/mL of unviable Caco-2 cells was thawed and warmed at 37° C. A 0.010 mL aliquot of a stock solution of the compound in DMSO (2.5 mM) was added to the cells and incubated at 37 ° C. At selected timepoints, a 0.2 mL aliquot was removed and mixed with 0.5 mL of methanol containing retinyl acetate (0.011 mM) as an internal standard. The methanolic mixture was vigorously vortexed and 1 mL of chloroform was added to extract unreacted compound, astaxanthin and related compounds as well as the internal standard. After vigorous vortexing, the mixture was centrifuged at 8000 rpm for 10 min at 4° C. The chloroform phase was removed and dried under nitrogen flow. 1 mL of the sample solvent (THF/acetonitrile with 1% Formic acid) was added to the residue, mixed vigorously and filtered through a PVDF 0.22 um filter in a HPLC vial. The filtrate was stored in the autosampler at 5° C. and injected in the HPLC to measure the amount of internal standard, unreacted compound, free astaxanthin and its related compounds. The HPLC equipment was a UHPLC Nexera XR (Shimadzu)/PDA SPD-M3OA (Shimadzu) with a Shimpack GIST C18 100×2.1 mm, 2 um column at 40° C. Two HPLC methods were used, gradient and isocratic depending on the prodrug. Gradient method: flow 0.2 mL/m, mobile phase A (MPA): water with formic acid 0.1%, mobile phase B (MPB): acetonitrile with formic acid 0.1%, gradient: time 0 m 60/40, 2.5 m 10/90, 10.4 m 10/90. UV(PDA) detector 380 and 325 nm (for retinyl acetate). […]

The mark [1] stands for this setting: unviable Caco-2 cells 5 million/mL, 37 °C, HPLC.

The structures appear in SMILES notation.

Consider `CC1=C(/C=C/C(C)=C/C=C/C(C)=C/C=C/C=C(C)/C=C/C=C(C)/C=C/C2=C(C)C(=O)[C@@H](OC(=O)CNC(=O)c3cccnc3)CC2(C)C)C(C)(C)C[C@H](OC(=O)CNC(=O)c2cccnc2)C1=O` [CCXX, (all-E)-3S,3′S-Astaxanthin-di-N-nicotinoglycinate], for which, under setting [1], the “Conversion efficiency to trans-astaxanthin (comparison between compounds)” value was “higher conversion efficiency to trans-astaxanthin than CCXXI and CCXXII”; the Conversion to trans-astaxanthin result is recorded as “observed”.
With `CC1=C(/C=C/C(C)=C/C=C/C(C)=C/C=C/C=C(C)/C=C/C=C(C)/C=C/C2=C(C)C(=O)[C@@H](OC(=O)CCNC(=O)c3cccnc3)CC2(C)C)C(C)(C)C[C@H](OC(=O)CCNC(=O)c2cccnc2)C1=O` [CCXXI, (all-E)-3S,3′S-astaxanthin-di-N-nicotinoyl-β-alaninate], under setting [1], the Conversion to trans-astaxanthin entry is “observed”.
As to `CC1=C(/C=C/C(C)=C/C=C/C(C)=C/C=C/C=C(C)/C=C/C=C(C)/C=C/C2=C(C)C(=O)[C@@H](OC(=O)[C@@H](C)NC(=O)c3cccnc3)CC2(C)C)C(C)(C)C[C@H](OC(=O)[C@H](C)NC(=O)c2cccnc2)C1=O` [CCXXII], the Conversion to trans-astaxanthin entry under setting [1] was “observed”.
Take `CC1=C(/C=C/C(C)=C/C=C/C(C)=C/C=C/C=C(C)/C=C/C=C(C)/C=C/C2=C(C)C(=O)[C@@H](OC(=O)[C@H](NC(=O)c3cccnc3)C(C)C)CC2(C)C)C(C)(C)C[C@H](OC(=O)[C@@H](NC(=O)c2cccnc2)C(C)C)C1=O` [CCXXVI]: under “Caco-2”, the “Conversion to astaxanthin monoester” value is “only a small amount” and the “Stability over the same time frame” value is recorded as “stable”.

For the origin of these results see patent US20240116864A1, “XANTHOPHYLL DERIVATIVES” (priority 2020, published 2024).
